These results are taken from patent publication US8889130B2, “Treatment of osteoarthritis and pain” (Abbvie Inc., priority 2011, dated 2014).

Experiment [1] deals with human OA patients. The settings on record: literature (Cohen et al., ACR 2007); cited from earlier work.
For experiment [2], the system named is mice (male CD1). Description: L5/L6 spinal nerve ligation (SNL) model of neuropathic pain, mechanical allodynia. Type of experiment: in vivo. As to conditions: mAbs 900 μg/mouse each, gabapentin 100 mg/kg, 1 hour pretreatment. As to the method: Whether an anti-IL-1α and anti-IL-1β mAb combination therapy would produce efficacy in neuropathic pain conditions was examined in an L5/L6 spinal nerve ligation (SNL) model in mice (male CD1). Testing was performed six days after SNL surgery, 24 and 72 hours after animals were treated with mAb combination (900 μg/mouse of each mAb). […] The magnitude of efficacy (% MPE) was 72.20±14.39% at 24 hours and 80.62±12.33% at 72 hours (FIG. 19).

The test system of experiment [3] is mice (female BALB/c). Briefly: Mouse carrageenan-induced inflammatory pain model, thermal hyperalgesia (paw withdrawal latency). The experiment is classed as in vivo. As to conditions: for thermal hyperalgesia / antinociceptive effect: Example 8, 48 and 96 hours, single mAb 900 μg, diclofenac 30 mg/kg; for paw withdrawal latency, carrageenan (injured) paw: mAbs 900 μg each at 30 hours, diclofenac 30 mg/kg p.o. 60 minutes before testing. The protocol:
To evaluate whether neutralization of IL-1α and IL-1β produces antinociceptive effects in inflammatory pain conditions, anti-IL-1α and anti-IL-1β mAbs were evaluated for the ability to reverse established pain in the mouse carrageenan paw model of nociceptive pain.
The efficacy of the anti-IL-1α and anti-IL-1β mAbs was evaluated when administered alone or in combination in the mouse carrageenan model (FIG. 15). At 30 hours after intraplantar carrageenan injection: 900 μg of either anti-IL-1α mAb, anti-IL-1β mAb, or their combination were administered in different groups of mice. Thermal hyperalgesia testing was performed 48 and 96 hours after carrageenan. […] The antinociceptive effect in 900 μg combination group was 53±7% at 48 hours, and 82±11% at 96 hours.
Different groups of animals were treated either with vehicle or a combination of anti-IL-1α and anti-IL-1β mAbs (100, 300, or 900 μg/mouse of each mAb) 30 hours after carrageenan injection. […] The antinociceptive effect in 900 μg treatment group was 70±9% at 48 hours, and 62±4% at 96 hours. Diclofenac (30 mg/kg), a non-steroidal, anti-inflammatory analgesic, was included as positive control in the study, and it increased the mean paw withdrawal latency of the injured paw to 7.01±0.58 s at 48 hours and 7.48±0.34 s at 96 hours when administered p.o. 60 minutes before testing (p<0.01 at both time points).
For orientation: The carrageenan paw model is a standard test of acute inflammation.

The subject of experiment [4] is female BALB/c mice. Briefly: CFA (Complete Freund's Adjuvant) inflammatory pain model, mechanical allodynia (von Frey). Type of experiment: in vivo, mouse. As to conditions: 48 hours after CFA, diclofenac 30 mg/kg. The protocol: The CFA (Complete Freund's Adjuvant) inflammatory pain model was used to test whether the anti-IL-1α and anti-IL-1β mAb combination would produce efficacy against a mechanical endpoint. Therefore, mechanical allodynia was assessed using von Frey monofilaments in animals (female BALB/c mice) 48 hours after they were injected intraplantar with CFA. […] Separate groups of animals were treated either with IgG isotype control or a combination of anti-IL-1α and anti-IL-1β mAbs (900 μg/mouse of each mAb) 30 hours after CFA injection. […] The magnitude of efficacy (% MPE) was 65.51±12.35% (FIG. 17B).

Experiment [5] concerns Male SV129 mice. Briefly: Destabilization of medial meniscus (DMM) model of osteoarthritis, cartilage degeneration (Chambers scores). Type of experiment: in vivo, mouse. The settings on record: Example 3.3.6 (FIG. 7); 8 weeks; mAbs 6 mg/kg alone or in combination.
Text: (§1) Male SV129 mice weighing approximately 30 grams, housed 5/cage, were anesthetized on Day 0 with ketamine/xylazine cocktail, administered intraperitoneally (ip), and then the medial collateral ligament was exposed by blunt dissection, and transected to reflect the meniscus toward the femur. The joint space was closed with 8-0 vicryl suture. The skin was closed with wound glue. For sham surgeries, a vertical skin incision was made over the medial aspect of the knee and the joint capsule was opened. The capsule was closed with 8-0 vicryl suture and the skin was closed with wound glue. Groups of animals were then treated with intraperitoneal (ip) injections of antibody or vehicle according to the study design table below. Two sex-matched, age-matched, and strain-matched naïve mice were also included in the study. Animals were euthanized after 8 weeks of treatment, and knee joints were harvested in 10% neutral buffered formalin.
Formalin-fixed samples were decalcified, and specimens were sectioned in the frontal plane into 15 step sections each. Each section was approximately 6 μm thick, and step sections were separated by 70 μm. All slides were stained with toluidine blue (T. Blue). Slides were assessed according to the Chambers method (Chambers et al. (2001) Arthritis Rheum 44:1455-65) for cartilage degeneration (see below) by a board-certified veterinary pathologist. Each of the four cartilage surfaces, the medial femoral condyle (MFC), the medial tibial plateau (MTP), the lateral femoral condyle (LFC), and the lateral tibial plateau (LTP), was scored from 0-6 according to the scale in the table below.
as §1, with “8-0 vicryl suture, and the” for “8-0 vicryl suture and the”, “injections of anti-mIL-1α monoclonal antibody, anti-mIL-1β (alone or in combination), mIL-1α/βDVD-Ig binding protein, or vehicle” for “injections of antibody or vehicle”, “design table below (Table 24). Animals were” for “design table below. Two sex-matched, age-matched, and strain-matched naïve mice were also included in the study. Animals were”, “weeks of treatment and knee” for “weeks of treatment, and knee”
Male SV129 mice weighing approximately 30 grams had the medial collateral ligament exposed by blunt dissection, and transected to reflect the meniscus toward the femur. The joint space was closed with 8-0 vicryl suture. The skin was closed with wound glue. For sham surgeries, a vertical skin incision was made over the medial aspect of the knee and the joint capsule was opened. The capsule was closed with 8-0 vicryl suture, and the skin was closed with wound glue. Groups of animals were then treated per os (po) or via intraperitoneal (ip) injections of vehicle or treatments according to the study design table below. Three sex-matched, age-matched, and strain-matched naïve mice were also included in the study. Animals were euthanized after 4 weeks of treatment, and knee joints were harvested in 10% neutral buffered formalin.

Experiment [6] relates to male DBA-1 mice. Briefly: Collagen-induced arthritis mouse model (rheumatoid arthritis). As to conditions: therapeutic mode; 1-3 mg/kg intraperitoneally every other day after disease onset. The experiment is classed as in vivo. The protocol: The therapeutic effects of anti-IL-1α, anti-IL-1β, combined anti-IL-1α/anti-IL-1β, and murine IL-1α/β DVD4-Ig, were evaluated in a collagen-induced arthritis mouse model well known in the art. Briefly, male DBA-1 mice were immunized with bovine type II collagen in CFA at the base of the tail. The mice were boosted with Zymosan intraperitoneally (i.p) at day 21. After disease onset at day 24-27, mice were selected and divided into separate groups of 10 mice each. […] To neutralize IL-1, mice were injected every other day with 1-3 mg/kg of anti-IL-1α mAb, anti-IL-1βmAb, combination of anti-IL-1α and anti-IL-1β mAbs, or murine IL-1α/β DVD4-Ig intraperitoneally. Mice were carefully examined three times a week for the visual appearance of arthritis in peripheral joints, and scores for disease activity determined.

The test system of experiment [7] is DMM mice. Briefly: DMM model of osteoarthritis, mechanical allodynia (paw withdrawal threshold). The experiment is classed as in vivo, mouse. As to conditions: Example 5 (FIG. 12); 6 mg/kg ip twice per week for four weeks; day 28. As to the method:
The DMM model also generates measurable pain in the mice. […] The efficacy of anti-IL-1α/β therapy was studied in the DMM animal model.
The potential of anti-IL-1 therapy to ameliorate pain was tested in the DMM mouse model of OA in terms of mechanical allodynia. Dosing of the combination of IL-1α and IL-1β mAbs was initiated on the day of the surgery and was repeated twice a week for 5 weeks. Animals were treated with PBS vehicle alone, with an IgG isotype control, or with a combination of anti-IL-1α and anti-IL-1β mAbs (at a dose of 6 mg/kg for each mAb). Animals were tested weekly for paw withdrawal threshold. […] This reduction in pain was seen as early as week 1 following treatment (data not shown).
To evaluate the effect of IL-1 therapy in established pain, animals in the IgG control group with established OA and mechanical allodynia were treated on day 35 with the combination of anti-IL-1α and anti-IL-1β monoclonal antibodies and the paw withdrawal threshold was tested 24 hours later (day 36).
The potential of anti-IL-1 therapy to ameliorate pain in the DMM mouse model of OA (see, above) in terms of mechanical allodynia was further evaluated. Dosing of the combination of IL-1α and IL-1β mAbs was initiated on the day of the surgery and was repeated twice a week for 4 weeks. […]

In the case of Anakinra: IL-1 receptor antagonist, the “efficacy in OA trials with respect to symptoms and chondroprotection” value in experiment [1] is “some efficacy”.
Consider `NCC1(CC(=O)O)CCCCC1` [gabapentin], for which the “paw withdrawal threshold (von Frey)” value is 0.858 ± 0.077 g in experiment [2] (at 24 hours) and 1.138 ± 0.096 g in experiment [2] (at 72 hours).
As to `O=C(O)Cc1ccccc1Nc1c(Cl)cccc1Cl` [Diclofenac], the “thermal hyperalgesia / antinociceptive effect” value in experiment [3] was “significant attenuation of thermal hyperalgesia”. Besides, the “paw withdrawal latency, carrageenan (injured) paw” value in experiment [3] (Example 9 (FIG. 16A), at 48 hours) turned out to be 7.01 ± 0.58 s; in experiment [3] (Example 9 (FIG. 16B), at 96 hours), 7.48 ± 0.34 s. In experiment [4] (mAbs 900 μg/mouse each 30 hours after CFA, 1 hour pretreatment), the “paw withdrawal threshold, CFA injected paw” value is 0.359 ± 0.088 g. Besides, in experiment [4] (mAbs 900 μg/mouse each), the “magnitude of efficacy (% MPE)” value was 64.51±10.20%.

B1: 9H10: mouse anti-mouse IL-1α monoclonal antibody (clone 9H10) from IL-1α/β double KO mice (antibody, V domains shown)
VH: QVILKESGPGILQPSQTLSLTCSFSGFSLSTYGTAVNWIRQPSGKGLEWLAQIGSDDRKLYNPFLKSRITLSEDTSNSQVFLKITSVDTEDSATYYCANGVMEYWGLGTSVTVSS
VL: SIVMTQTPKFLLVSAGDRVTITCKASQSVNHDVAWYQQMPGQSPKLLIYFASNRYTGVPDRFTGSGYGTDFTFTISTVQAEDLAVYFCQQDYSSPYTFGGGTKLEIKR
modifications: heavy chain variable domain of 9H10; light chain variable domain of 9H10
notes: mouse anti-mouse IL-1α monoclonal antibody (clone 9H10) from IL-1α/β double KO mice
As for B1, the “thermal hyperalgesia / antinociceptive effect” value in experiment [3] is “no significant antinociceptive effect”. Besides, in experiment [5], the “mean sum Chambers scores and mean maximum Chambers scores (cartilage degeneration)” value is reported as “not statistically significant”. Also, the “reduction in mean arthritis score compared to control group” value in experiment [6] turned out to be 10%. For the same molecule, the “paw withdrawal threshold (allodynia)” value in experiment [7] was “allodynic (painful)”.
